Some test systems named below: 786-0 renal; CCRF-CEM leukemia; MDA-MB-435; NCI-H226 lung; RPMI-8226 leukemia; SF-268 CNS; SF-295 CNS; SK-MEL-2 melanoma; SN12C renal; SNB-19 CNS.
Holding throughout (assay): DTP human tumour cell line panel, 48 h

Data on eleven compounds can be found in PubChem BioAssay (NCI).

Each structure is given as a SMILES string.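 All cell lines were grown in 96-well plates and treated with compound for 48 hours. GI50: concentration for 50% inhibition of growth. TGI denotes the concentration required for complete inhibition of growth.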

As for `C=C1C(=O)O[C@H]2[C@H]1CC/C(Cn1cc(-c3ccc(F)cc3)nn1)=C\CC[C@@]1(C)O[C@@H]21`, the GI50 is 1.06 µM with 786-0 renal; 0.247 µM in the assay with CCRF-CEM leukemia; 1 µM with MDA-MB-435; 2.48 µM in the assay on NCI-H226 lung; 1.41 µM in the assay on RPMI-8226 leukemia; 1.69 µM in the assay on SF-268 CNS. Further, the GI50 was 5.73 µM with SF-295 CNS, 1.83 µM with SK-MEL-2 melanoma, 1.64 µM with SN12C renal and 3.39 µM with SNB-19 CNS. The TGI in the assay on 786-0 renal turned out to be 2.36 µM; in the assay with CCRF-CEM leukemia, 0.75 µM; in the assay with MDA-MB-435 it was 2.39 µM; in the assay with NCI-H226 lung, 6.74 µM; in the assay with RPMI-8226 leukemia, 4.92 µM; with SF-268 CNS, 3.4 µM. In addition, the TGI in the assay with SF-295 CNS was 19.1 µM; in the assay on SK-MEL-2 melanoma, 3.94 µM; in the assay with SN12C renal, 3.79 µM; with SNB-19 CNS it was 13 µM.

Consider `O=C1C=Cc2c1ccc1ccccc21`, for which the GI50 in the assay on 786-0 renal is 21.3 µM; in the assay with CCRF-CEM leukemia, 14.8 µM; in the assay on MDA-MB-435 it was 14.9 µM; in the assay on NCI-H226 lung, 16.6 µM; in the assay with RPMI-8226 leukemia it was 4.2 µM; in the assay on SF-268 CNS, 28.3 µM. Further, the GI50 with SF-295 CNS is 20.8 µM; in the assay on SK-MEL-2 melanoma it was 72.9 µM; with SN12C renal it was 6.55 µM; in the assay with SNB-19 CNS, 33 µM. Further, the TGI is 65.2 µM with 786-0 renal; 43.9 µM in the assay with CCRF-CEM leukemia; 42.9 µM in the assay with MDA-MB-435; over 100 µM in the assay on NCI-H226 lung; 21.9 µM with RPMI-8226 leukemia; over 100 µM in the assay with SF-268 CNS. For the same compound, the TGI in the assay on SF-295 CNS is 63.6 µM; in the assay on SK-MEL-2 melanoma it was over 100 µM; with SN12C renal, 35.7 µM; with SNB-19 CNS, over 100 µM.

Regarding `COC1=CC(c2ccc[nH]2)=N/C1=C\c1[nH]c(C)c(CC(=O)OCc2ccccc2)c1C`, the GI50 in the assay on 786-0 renal was 0.299 µM; in the assay with CCRF-CEM leukemia, 0.184 µM; with MDA-MB-435, 0.369 µM; in the assay with NCI-H226 lung it was 0.33 µM; with SF-268 CNS, 0.358 µM; in the assay on SF-295 CNS, 0.252 µM. For the same compound, the GI50 with SK-MEL-2 melanoma was 0.198 µM; in the assay on SNB-19 CNS, 0.671 µM. Further, the total growth inhibition concentration (TGI) with 786-0 renal amounted to 1.19 µM; with CCRF-CEM leukemia, 1.94 µM; in the assay with MDA-MB-435, 1.42 µM; with NCI-H226 lung, 2.31 µM; in the assay on SF-268 CNS it was 2.56 µM; in the assay with SF-295 CNS, 1.1 µM. In addition, the TGI was 0.51 µM in the assay with SK-MEL-2 melanoma and 12.4 µM in the assay on SNB-19 CNS.

For the compound `O=C1C(=O)c2ccccc2C(O)=C1CCCc1ccc(C2CCCCC2)cc1`, the GI50 with 786-0 renal is 3.73 µM; in the assay on MDA-MB-435 it was 3.64 µM; in the assay on NCI-H226 lung, 5.42 µM; with RPMI-8226 leukemia it was 1.8 µM; with SF-268 CNS, 3.8 µM; in the assay on SF-295 CNS, 1.89 µM. Besides, the figures for the GI50 with SN12C renal and in the assay with SNB-19 CNS were 6.35 µM and 5.66 µM, respectively. The TGI with 786-0 renal came out at 43.5 µM; in the assay with MDA-MB-435, 22.6 µM; with NCI-H226 lung, 27.6 µM; in the assay with RPMI-8226 leukemia it was 23.7 µM; with SF-268 CNS, 49.6 µM; in the assay with SF-295 CNS, 6.36 µM. Besides, the TGI with SN12C renal and in the assay with SNB-19 CNS was over 100 µM each time.

With `CC(=O)NC(CSC1=C2NC(=O)\C=C/C=C/C=C\C(C)C(O)CC(=O)/C(C)=C\CC(O)/C=C/C(C)C(O)C(C)C=C(C)C(=O)c3c(O)c(C)cc(c3C1=O)C2=O)C(=O)O` (stereo not drawn), the TGI with 786-0 renal is over 100 µM; in the assay on CCRF-CEM leukemia, 78.9 µM; with MDA-MB-435, over 100 µM; in the assay with NCI-H226 lung, over 100 µM; in the assay on SF-295 CNS, over 100 µM; with SK-MEL-2 melanoma, over 100 µM. The TGI in the assay on SN12C renal and in the assay on SNB-19 CNS was over 100 µM throughout.

As for `COC(=O)[C@@H](C)[C@H]1CC[C@@](C)(CCC2=C(C)CC3C=C(C)CCC3C2(C)C)OO1` (stereo partly drawn), the TGI in the assay on 786-0 renal came out at 0.263 µM; with CCRF-CEM leukemia, 0.39 µM; in the assay on NCI-H226 lung, 4.13 µM; in the assay on RPMI-8226 leukemia, 5.98 µM; in the assay on SF-268 CNS it was 3.76 µM; with SF-295 CNS, 3.2 µM. Also, the TGI with SK-MEL-2 melanoma came to 3.32 µM; in the assay on SN12C renal it was 2.36 µM; in the assay on SNB-19 CNS it was 3.16 µM.

Turning to `C1CN(P2(N3CC3)=NP(N3CC3)(N3CC3)=NP(N3CC3)(N3CC3)=N2)CCO1` (stereo not drawn), the TGI in the assay on 786-0 renal, in the assay with CCRF-CEM leukemia, in the assay on NCI-H226 lung, with RPMI-8226 leukemia, in the assay with SF-268 CNS and in the assay with SF-295 CNS was over 100 µM each time. The TGI in the assay with SK-MEL-2 melanoma, in the assay on SN12C renal and in the assay with SNB-19 CNS was over 100 µM in each case.

With `CN(C)CCCC1(c2ccc(F)cc2)OCc2cc(-c3cc4ccccc4s3)ccc21` (stereo not drawn), the GI50 was 1.76 µM in the assay on 786-0 renal; 1.83 µM in the assay with MDA-MB-435; 1.65 µM in the assay on SF-268 CNS; 1.91 µM in the assay with SF-295 CNS; 1.8 µM in the assay on SK-MEL-2 melanoma; 1.57 µM with SN12C renal. Besides, in the assay on SNB-19 CNS, the GI50 is 1.72 µM. Also, the TGI in the assay on 786-0 renal was 3.37 µM; in the assay with MDA-MB-435, 3.32 µM; in the assay with SF-268 CNS, 3.29 µM; in the assay on SF-295 CNS, 3.6 µM; with SK-MEL-2 melanoma, 3.46 µM; in the assay on SN12C renal, 2.94 µM. The compound further gave a TGI in the assay with SNB-19 CNS of 3.13 µM.

Consider `CC1(C)C2CCC1C(=O)[C@@]1(C=CC(=O)CC1)C2` (stereo partly drawn), for which the TGI in the assay with 786-0 renal, in the assay with CCRF-CEM leukemia, with MDA-MB-435, in the assay with NCI-H226 lung, with RPMI-8226 leukemia and in the assay with SF-268 CNS was over 100 µM throughout. Also, the TGI with SF-295 CNS, in the assay with SN12C renal and in the assay on SNB-19 CNS was over 100 µM each time.

As for `OC12c3ccccc3C1CCCCCCCCCC21OCCO1` (stereo not drawn), the total growth inhibition concentration (TGI) in the assay with 786-0 renal, in the assay with CCRF-CEM leukemia, with NCI-H226 lung, in the assay on RPMI-8226 leukemia, in the assay with SF-268 CNS and in the assay on SF-295 CNS was over 100 µM in each case. Besides, the TGI in the assay on SK-MEL-2 melanoma, in the assay with SN12C renal and in the assay on SNB-19 CNS was over 100 µM in each case.

Take `CCCCCC[C@@H](C)NC(=O)c1ccc(Nc2nc3ccccc3c3occc23)cc1`: the GI50 with 786-0 renal was 2.9 µM; with CCRF-CEM leukemia, 3.89 µM; in the assay on MDA-MB-435, 2.98 µM; in the assay on RPMI-8226 leukemia, 3.75 µM; with SF-268 CNS, 5.73 µM; in the assay on SF-295 CNS, 4.39 µM. Besides, the GI50 in the assay on SK-MEL-2 melanoma was 2.51 µM; in the assay on SN12C renal it was 40.8 µM; in the assay with SNB-19 CNS it was 5.54 µM. Besides, the TGI is 26.3 µM in the assay with 786-0 renal; 15.4 µM with CCRF-CEM leukemia; over 100 µM in the assay on MDA-MB-435; over 100 µM with RPMI-8226 leukemia; over 100 µM in the assay with SF-268 CNS; over 100 µM in the assay with SF-295 CNS. The values for the TGI with SK-MEL-2 melanoma, with SN12C renal and in the assay with SNB-19 CNS were 7.23 µM, over 100 µM and over 100 µM, respectively.
